Reference: PubChem BioAssay AID2060903 (Molecular Pharmacology Branch, DTP, NCI, 2025)
“And” between values parts separate entries of the source, which are not always exact repeats. Identical values can stand only once.

Test system: 377384-186-R-J1-PDC complex spheroid viability
Assay: Anticancer human tumor 377384-186-R-J1-PDC patient-derived pancreatic carcinoma cell line growth inhibition [RAS]
Conditions: for viability, T/C: stronger effect = lower value
In short: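 Multi-cell-type spheroids: tumor cells plus HUVEC endothelial cells and mesenchymal stem cells. RAS-pathway inhibitors were combined with targeted agents, each dosed in half-log steps down from clinical Cmax, or from 10 microM when Cmax was unknown.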

[1] = curve of first compound, second compound 0.00316 µM
[2] = curve of first compound, second compound 0.01 µM
[3] = curve of first compound, second compound 0.0316 µM
[4] = curve of first compound, second compound 0.1 µM
[5] = curve of first compound, second compound 0.316 µM
[6] = curve of first compound, second compound 1 µM
[7] = second compound 0.00316 µM, first compound 0.0316 µM
[8] = second compound 0.00316 µM, first compound 0.1 µM
[9] = second compound 0.00316 µM, first compound 0.316 µM
[10] = second compound 0.00316 µM, first compound 1 µM
[11] = second compound 0.00316 µM, first compound 3.16 µM
[12] = second compound 0.00316 µM, first compound 10 µM
[13] = second compound 0.01 µM, first compound 0.0316 µM
[14] = second compound 0.01 µM, first compound 0.1 µM
[15] = second compound 0.01 µM, first compound 0.316 µM
[16] = second compound 0.01 µM, first compound 1 µM
[17] = second compound 0.01 µM, first compound 3.16 µM
[18] = second compound 0.01 µM, first compound 10 µM
[19] = second compound 0.0316 µM, first compound 0.0316 µM
[20] = second compound 0.0316 µM, first compound 0.1 µM
[21] = second compound 0.0316 µM, first compound 0.316 µM
[22] = second compound 0.0316 µM, first compound 1 µM
[23] = second compound 0.0316 µM, first compound 3.16 µM
[24] = second compound 0.0316 µM, first compound 10 µM
[25] = second compound 0.1 µM, first compound 0.0316 µM
[26] = second compound 0.1 µM, first compound 0.1 µM
[27] = second compound 0.1 µM, first compound 0.316 µM
[28] = second compound 0.1 µM, first compound 1 µM
[29] = second compound 0.1 µM, first compound 3.16 µM
[30] = second compound 0.1 µM, first compound 10 µM
[31] = second compound 0.316 µM, first compound 0.0316 µM
[32] = second compound 0.316 µM, first compound 0.1 µM
[33] = second compound 0.316 µM, first compound 0.316 µM
[34] = second compound 0.316 µM, first compound 1 µM
[35] = second compound 0.316 µM, first compound 3.16 µM
[36] = second compound 0.316 µM, first compound 10 µM
[37] = second compound 1 µM, first compound 0.0316 µM
[38] = second compound 1 µM, first compound 0.1 µM
[39] = second compound 1 µM, first compound 0.316 µM
[40] = second compound 1 µM, first compound 1 µM
[41] = second compound 1 µM, first compound 3.16 µM
[42] = second compound 1 µM, first compound 10 µM
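Note: spheroids exposed to compounds for seven days before readout.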

Work on `CC(C)NCC(C(=O)N1CCN(c2ncnc3c2C(C)CC3O)CC1)c1ccc(Cl)cc1` (stereo unspecified) + C=CC(=O)N1CCN(c2nc(OCC3CCCN3C)nc3c(F)c(-c4nc(N)cc(C)c4C(F)(F)F)c(Cl)cc23)C(C)C1 yielded an IC50 [1] of 2.32 µM, an IC50 [2] of 2.67 µM and an IC50 [3] of 2.78 µM. For the same compound, the IC50 [4] was 2.45 µM, the IC50 [5] was 1.76 µM and the IC50 [6] was 2.06 µM. For the same compound, the viability, T/C [7] was 80.9%, the viability, T/C [8] was 95% and the viability, T/C [9] was 87.4%. For the same compound, the viability, T/C [10] was 61.7%, the viability, T/C [11] was 48.6% and the viability, T/C [12] was 32.6%. The viability, T/C [13] was 96.8%, the viability, T/C [14] was 78.1% and the viability, T/C [15] was 73.7%. It also gave a viability, T/C [16] of 63.3%, a viability, T/C [17] of 46.4% and a viability, T/C [18] of 35.9%. The viability, T/C [19] was 91.3%, the viability, T/C [20] was 96.7% and the viability, T/C [21] was 70%. The viability, T/C [22] was 67.1%, the viability, T/C [23] was 47.4% and the viability, T/C [24] was 38.1%. The viability, T/C [25] was 99.8%, the viability, T/C [26] was 85% and the viability, T/C [27] was 86.5%. It also gave a viability, T/C [28] of 58.7%, a viability, T/C [29] of 48.2% and a viability, T/C [30] of 35.5%. For the same compound, the viability, T/C [31] was 89.4%, the viability, T/C [32] was 102% and the viability, T/C [33] was 80.9%. It also gave a viability, T/C [34] of 56%, a viability, T/C [35] of 47.8% and a viability, T/C [36] of 35%. It also gave a viability, T/C [37] of 91.8%, a viability, T/C [38] of 97% and a viability, T/C [39] of 75.1%. It also gave a viability, T/C [40] of 61.7%, a viability, T/C [41] of 44.4% and a viability, T/C [42] of 32.8%.
For `CC1(O)CCCC1n1c(=O)c(C(F)F)cc2cnc(NC3CCN(S(C)(=O)=O)CC3)nc21` (stereo unspecified) + C=CC(=O)N1CCN(c2nc(OCC3CCCN3C)nc3c(F)c(-c4nc(N)cc(C)c4C(F)(F)F)c(Cl)cc23)C(C)C1, the IC50 [1] was 0.0988 µM, the IC50 [2] was 0.0866 µM and the IC50 [3] was 0.0954 µM. The IC50 [4] was 0.0771 µM, the IC50 [5] was 0.0769 µM and the IC50 [6] was 0.0675 µM. The viability, T/C [7] was 81.1%, the viability, T/C [8] was 49.7% and the viability, T/C [9] was 17%. The viability, T/C [10] was 24.2%, the viability, T/C [11] was 33.9% and the viability, T/C [12] was 4.64%. For the same compound, the viability, T/C [13] was 89.5%, the viability, T/C [14] was 45.1% and the viability, T/C [15] was 21.4%. The viability, T/C [16] was 20.8%, the viability, T/C [17] was 28.8% and the viability, T/C [18] was 4.18%. The viability, T/C [19] was 73.4%, the viability, T/C [20] was 49% and the viability, T/C [21] was 20.9%. It also gave a viability, T/C [22] of 20.7%, a viability, T/C [23] of 29.1% and a viability, T/C [24] of 5.27%. The viability, T/C [25] was 79.3%, the viability, T/C [26] was 42.1% and the viability, T/C [27] was 20.4%. The viability, T/C [28] was 24.4%, the viability, T/C [29] was 29.3% and the viability, T/C [30] was 4.69%. The viability, T/C [31] was 74.3%, the viability, T/C [32] was 42.8% and the viability, T/C [33] was 17.7%. The viability, T/C [34] was 21.5%, the viability, T/C [35] was 33% and the viability, T/C [36] was 5.33%. It also gave a viability, T/C [37] of 69.4%, a viability, T/C [38] of 39.9% and a viability, T/C [39] of 19.7%. For the same compound, the viability, T/C [40] was 22.5%, the viability, T/C [41] was 32.5% and the viability, T/C [42] was 6.56%.
In the case of `NC1c2ccccc2OC12CCN(c1cnc3c(N4CCCc5ncccc54)n[nH]c3n1)CC2` (stereo unspecified), the viability, T/C (compound 0.1 µM) is reported as 83.4% [middle of 4 runs], the viability, T/C (compound 0.316 µM) is reported as 80.6% [middle of 4 runs] and the viability, T/C (compound 1 µM) is reported as 73% [middle of 4 runs]. The viability, T/C (compound 3.16 µM) was 76.8% [middle of 4 runs], the viability, T/C (compound 10 µM) was 70% [middle of 4 runs] and the IC50 (curve of compound) was > 10 µM.
With `NC1c2ccccc2OC12CCN(c1cnc3c(N4CCCc5ncccc54)n[nH]c3n1)CC2` (stereo unspecified) + C=CC(=O)N1CCN(c2nc(OCC3CCCN3C)nc3c(F)c(-c4nc(N)cc(C)c4C(F)(F)F)c(Cl)cc23)C(C)C1 the IC50 [1] was > 10 µM, the IC50 [2] was > 10 µM and the IC50 [3] was > 10 µM. For the same compound, the IC50 [4] was > 10 µM, the IC50 [5] was > 10 µM and the IC50 [6] was > 10 µM. The viability, T/C [7] was 82.9%, the viability, T/C [8] was 77% and the viability, T/C [9] was 66.5%. For the same compound, the viability, T/C [10] was 69.1%, the viability, T/C [11] was 75.6% and the viability, T/C [12] was 68.4%. The viability, T/C [13] was 86.9%, the viability, T/C [14] was 63.1% and the viability, T/C [15] was 76.8%. The viability, T/C [16] was 71.9%, the viability, T/C [17] was 65.8% and the viability, T/C [18] was 63.8%. It also gave a viability, T/C [19] of 83.5%, a viability, T/C [20] of 68.8% and a viability, T/C [21] of 76%. For the same compound, the viability, T/C [22] was 65.7%, the viability, T/C [23] was 57.7% and the viability, T/C [24] was 66%. It also gave a viability, T/C [25] of 90.7%, a viability, T/C [26] of 70.1% and a viability, T/C [27] of 75.9%. For the same compound, the viability, T/C [28] was 64.5%, the viability, T/C [29] was 72.1% and the viability, T/C [30] was 70.7%. For the same compound, the viability, T/C [31] was 81.2%, the viability, T/C [32] was 70.8% and the viability, T/C [33] was 78.9%. It also gave a viability, T/C [34] of 70.3%, a viability, T/C [35] of 71.8% and a viability, T/C [36] of 71%. For the same compound, the viability, T/C [37] was 79.3%, the viability, T/C [38] was 73.3% and the viability, T/C [39] was 77.9%. The viability, T/C [40] was 73.1%, the viability, T/C [41] was 76.3% and the viability, T/C [42] was 68.4%.
In the case of `C[C@@H](NC(=O)c1ncnc(N)c1Cl)c1ncc(C(=O)Nc2cc(C(F)(F)F)c(Cl)cn2)s1`, the viability, T/C (compound 0.0316 µM) is reported as 95.1% [middle of 4 runs], the viability, T/C (compound 0.1 µM) is reported as 99.2% [middle of 4 runs] and the viability, T/C (compound 1 µM) is reported as 117% (2×) and 109% and 132%. For the same compound, the IC50 (curve of compound) was > 10 µM.
